These results are taken from patent US5234937A, “3,5-di-tertiary-butyl-4-hydroxphenyl oxazolyl methanones and related compounds as antiinflammatory agents” (Warner-Lambert Company, priority 1991, dated 1993).

The target of one assay is T1, 5-Lipoxygenase (Rattus norvegicus, UniProt P12527).
T1 construct: host or cells: RBL-1 (rat basophilic leukemia)
T1 sequence (P12527 1-673): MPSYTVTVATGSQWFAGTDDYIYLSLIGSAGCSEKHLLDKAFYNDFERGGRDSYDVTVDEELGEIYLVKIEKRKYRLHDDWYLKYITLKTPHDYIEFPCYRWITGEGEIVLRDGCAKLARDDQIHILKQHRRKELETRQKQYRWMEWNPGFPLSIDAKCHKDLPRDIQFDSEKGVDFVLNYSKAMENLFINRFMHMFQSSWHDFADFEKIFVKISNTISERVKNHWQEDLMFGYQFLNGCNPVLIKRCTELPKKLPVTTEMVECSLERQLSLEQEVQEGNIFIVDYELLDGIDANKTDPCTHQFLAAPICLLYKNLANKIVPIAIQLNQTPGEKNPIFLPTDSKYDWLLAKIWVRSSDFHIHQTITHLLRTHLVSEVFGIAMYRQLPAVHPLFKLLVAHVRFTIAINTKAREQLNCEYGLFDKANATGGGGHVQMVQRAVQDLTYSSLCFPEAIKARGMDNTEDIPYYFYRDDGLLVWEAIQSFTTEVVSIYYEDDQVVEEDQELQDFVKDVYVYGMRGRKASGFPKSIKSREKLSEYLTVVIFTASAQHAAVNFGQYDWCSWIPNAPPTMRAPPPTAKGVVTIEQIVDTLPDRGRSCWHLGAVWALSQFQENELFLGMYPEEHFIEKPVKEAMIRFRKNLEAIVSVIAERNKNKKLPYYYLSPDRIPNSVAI
The assay can be described thus: ARBL whole cell 5-lipoxygenase assay (LTB4 formation, RBL-1 cells). The assay is classed as cell-based. The settings on record: A23187 stimulated; for inhibition at 10 µM: read-out: ARBL Percent inhibition of LTB4 @ 10 μM. As to the method: (§1) ARBL/ARBC Cell 5-Lipoxygenase and Cyclooxygenase Assays The rat basophilic leukemia cell line (RBL-1) was obtained from the American Type Culture Collection (Rockville, MD). Radioimmunoassay (RIA) kits of LTB4 and PGF2α were obtained from Amersham (Arlington Heights, IL) and Seragen (Boston, MA), respectively. RBL-1 cells are grown in suspension culture in Eagle's minimum essential medium supplemented with 12% fetal bovine serum at 37° C in an incubator supplied with air-5% carbon dioxide. Cells are harvested by centrifugation. They are washed with cold phosphate buffered saline pH 7.4 (PBS; NaCl, 7.1 g; Na2 HPO4, 1.15 g; KH2 PO4, 0.2 g; and KCl, 0.2 g/L). Cells are finally suspended in PBS containing 1.0 mM calcium at a density of 2×10^6 cells/mL. Cells are incubated with and without test agent (in DMSO) (1% DMSO is without effect on arachidonic acid metabolism) for 10 minutes at room temperature. Calcium ionophore A23187 (5 μM) is added and cells are incubated for 7 minutes at 37° C. The reaction is stopped by chilling the tubes on ice for 10 minutes. Cells are separated by centrifugation and the supernatant is stored at -20° C. Aliquots (100 μ L) are analyzed for LTB4 and PGF2α using radioimmunoassay kits as provided by the supplier. Table I contains biochemical data obtained from this whole cell assay as IC50 s which are calculated as the amount of test compound causing 50% inhibition or % of inhibition at the named micromoles (μM) of […] or PGF2α formation.

The test system of another assay is Cyclooxygenase. The assay can be described thus: ARBC whole cell cyclooxygenase assay (PGF2α formation, RBL-1 cells). The assay is classed as cell-based, rat. To be noted: A23187 stimulated. As to the method: as §1
Assay [1] deals with Carrageenan-induced rat foot paw edema. The assay can be described thus: Carrageenan-induced rat foot paw edema 2 (CFE 2) assay. The assay is classed as in vivo. To be noted: 3 mg/kg, dosed 1 hour before carrageenan, edema measured 5 hours after carrageenan. As to the method: Carraogenan-Induced Rat Foot Paw Edema 2 (CFE 2) Assay: Protocol
Carageenan solution (1% w/v) is prepared by dissolving 100 mg carrageenan (Marine Colloidal Div., Springfield, NJ) in 10 mL of sterile saline (0.9%) solution (Travenol). The solution is vortexed for 30 to 45 minutes. Animals are dosed with compound 1 hour before carrageenan challenge. Foot paw edema is induced by injecting 0.10 mL of the 1% carrageenan subcutaneously into the plantar portion of the right hind paw of each rat under light anesthesia. Initial foot paw volume is measured immediately following carrageenan challenge using mercury plethysmography (Buxco Electronics). Edema is measured 5 hours after carrageenan. The difference between the 5-hour and the initial paw volume is expressed as delta edema. The delta edema for each test group of animals is used to calculate the percent inhibition of edema achieved by the compound at the test dose compared with the vehicle control group. The data in Table I (the dose at which swelling is inhibited by the noted percent) is calculated by probit analysis for the dose at which percent inhibition occurs.

For `Cc1cc(C(=O)c2cc(C(C)(C)C)c(O)c(C(C)(C)C)c2)no1` [Example 1, [3,5-Bis(1,1-dimethylethyl)-4-hydroxyphenyl](5-methyl-3-isoxazolyl)methanon], the IC50 on 5-Lipoxygenase (LTB4 by RIA, read-out: ARBL IC50 for LTB4 inhibition) is 830 nM; with Cyclooxygenase (PGF2α by RIA) it was 60 nM. Further, in assay [1], the “CFE percent inhibition of edema” value is 37%.

Take `CC(C)(C)c1cc(C(=O)c2nccs2)cc(C(C)(C)C)c1O` [Example 4, [3,5-Bis(1,1 dimethylethyl)-4-hydroxyphenyl]-2-thiazolylmethanone]: on 5-Lipoxygenase, the inhibition at 10 µM stood at 91%. For the same molecule, the “ARBC Percent inhibition of PGF2α @ 10 μM” value in the assay with Cyclooxygenase is reported as 91%.

With `CON=C(c1cc(C(C)(C)C)c(O)c(C(C)(C)C)c1)c1cc(C)on1` [Example 14], at 5-Lipoxygenase, the inhibition at 10 µM turned out to be 100%. Moreover, in the assay with Cyclooxygenase, the “ARBC Percent inhibition of PGF2α @ 10 μM” value amounted to 97%.
